From US4638088A, “Pesticidal biphenylyloxy and biphenylylalkoxy aryl acyl urea compounds” (Union Carbide Corporation, priority 1984, dated 1987)
≈ marks a conversion by molar mass, not a printed value. Read-outs that look alike come from different tables or passages of the source.

Assays:
Heliothis zea = experiment: Tobacco Budworm and Cotton Bollworm Leaf Spray Bait Test (cotton bollworm); assay type: in vivo; details: Helicoverpa zea, 120 h, read-out: LC50 values, Heliothis Zea
Protocol: (§1) Suspension of the test compounds were prepared by dissolving one gram of compound in 50 milliliters of acetone in which had been dissolved 0.1 gram (10 percent of the weight of compound) of an alkylphenoxy polyethoxyethanol surfactant, as an emulsifying or dispersing agent. The resulting solution was mixed into 150 milliliters of water to give roughly 200 milliliters of a suspension containing the compound in finely divided form. The thus-prepared stock suspension contained 0.5 percent by weight of compound. The test concentrations in parts per million by weight employed in the tests described hereinbelow were obtained by appropriate dilutions of the stock suspension with water. Certain of the test compounds were also prepared by dissolving 375 mg of compound in 7.5 ml of dimethylformamide. Fifteen milliliters of acetone containing 37.5 mg (10 percent of the weight of test compound) of an alkylphenoxy polyethoxyethanol surfactant, as a wetting/emulsifying/dispersing agent was added to the dimethylformamide solution. Fifty-two and one-half milliliters of water wasa mixed into the dimethylformamide-acetone mixture to give roughly 75 ml of a suspension containing the compound in solution or in finely divided form. The thus prepared stock suspension contained 0.5 percent by weight of compound. The test procedures were as follows:
(§2) Second instar larvae of the tobacco budworm (weighing about 4.5 mg) (Heliothis virescens, F.) and the cotton bollworm (weighing about 2.5 mg) (Heliothis zea, (Boddie)), obtained commercially and reared on artificial diet at a temperature of 80°±5° F. and a relative humidity of 50±5 percent, constituted the test insects.
(§3) Using a procedure similar to the above, but substituting cotton plants for snapbeans, treated and dried cotton leaves were introduced into 9 cm Petri dishes which were organized into groups of 10-dish sets. One randomly selected larvae was introduced into each dish of a ten dish set and the dishes were closed. The closed dishes were labelled and held at 80°±5° F. for five days. Larvae which were unable to move the length of the body, even upon stimulation, were considered dead. Percent mortality was recorded for various concentration levels. LC50 or concentration required to kill 50 percent of the larvae was determined from the mortality figures.

Heliothis virescens = experiment: Tobacco Budworm and Cotton Bollworm Leaf Spray Bait Test (tobacco budworm); assay type: in vivo; details: 120 h, read-out: LC50 values, Heliothis Virescens
Protocol: as §1, §2, §3

southern armyworm = experiment: Southern Armyworm Leaf Spray Bait Test; assay type: in vivo; details: Spodoptera eridania, 120 h, read-out: Activity at 500 ppm, SAW, 500 ppm; Southern Armyworm larvae; up to five days
Protocol: as §1
Larvae of the southern armyworm (Spodoptera eridania, (Cram.), reared on Tendergreen bean plants at a temperature of 80°±5° F. and a relative humidity of 50±5 percent, constituted the test insects.
Potted Tendergreen bean plants of standarad height and age were placed on a revolving turntable and sprayed with 100-110 milliliters of test compound formulation by use of a DeVilbiss spray gun set at 40 psig air pressure. This application, which lasted 25 seconds, was sufficient to wet plants to run-off. As a control, 100-110 milliliters of a water-acetone-emulsifier solution containing no test compound was also sprayed on infested plants. When dry, the paired leaves were separated and each one was placed in a 9 centimeter Petri dish lined with moistened filter paper. Five randomly selected larvae were introduced into each dish and the dishes were closed. The closed dishes were labeled and held at 80°-85° F. for up to five days. Although the larvae could easily consume the whole leaf within twenty-four hours, no more food was added. Larvae which were unable to move the length of the body, even upon stimulation by prodding, were considered dead. Percent mortality was recorded for various concentration levels.

Mexican bean beetle = experiment: Mexican Bean Beetle Leaf Spray Test; assay type: in vivo, Epilachna varivestic; details: Epilachna varivestis, 120 h, Mexican Bean Beetle larvae, five days, read-out: Activity at 500 ppm, MBB
Protocol: as §1
Fourth instar larvae of the Mexican bean beetle (Epilachna varivestic, Muls.), reared on Tendergreen bean plants at a temperature of 80°±5° F. and 50±5 percent relative humidity, were the test insects. For certain of the tests second instar larvae (weighting about 6 mg) of the Mexican bean beetle (Epilachna varaivestis, Muls.), reared on Sieva Pole lime bean plants at a temperature of 80°±5° F. and 50±5 percent relative humidity, were the test insects.
The test compounds were formulated by diluting the stock suspension with water to give a suspension containing 500 parts of test compound per million parts of final formulation. Potted Tendergreen bean plants of standard height and age were placed on a revolving turntable and sprayed with 100-110 milliliters of test compound formulation by use of a DeVilbiss spray gun set at 40 psig air pressure. This application, which lasted 25 seconds, was sufficient to wet plants to run-off. As a control, 100-110 milliliters of a water-acetone-emulsifier solution containing no test compound was also sprayed on infested plants. When dry, the paired leaves were separated and each was placed in a 9 centimeter Petri dish lined with moistened filter paper. Five randomly selected larvae were introduced into each dish, and the dishes were closed. The closed dishes were labeled and held at a temperature of 80°±5° F., for five days. Although the larvae could easily consume the leaf within 24 to 48 hours, no more food was added. Larvae which were unable to move the length of the body, even upon stimulation, were considered dead. Percent mortality was recorded for various concentration levels.

two-spotted mite = experiment: Mite Larvacidal Test Method; assay type: in vivo; details: Tetranychus urticae, 144 h, two-spotted mite larvae, five to six days, read-out: Mortality Rating at 500 ppm, Larvae
Protocol: Then the larvae are transferred to bean plants 6-8 inches in height. A sufficient number of larvae for testing (50-100) were transferred from TEPP treated leaves to the fresh plants in 24 hours.
Infested Tendergreen bean plants are placed on a revolving turntable. Test compounds are formulated with DMF, acetone, and a 3 to 1 mixture of Triton 172 and 152 (alkylphenoxy polyethoxyethanol surfactant mixture), respectively and then diluted in water to appropriate concentrations of chemical for application to the infested plants by use of a DeVilbiss spray gun with air pressure set at 40 pounds. The volume of 100 milliliters is sufficient to wet the plants to run off. A blank formulation is used for the control.
The treated plants are held at 80°±5° F. and 50±5 percent relative humidity for a period of five to six days, when mortality counts of the larvae are made.

[1] = Heliothis Zea, second instar larvae, five days

O=C(NC(=O)c1c(F)cccc1F)Nc1ccc(Cl)cc1 [Comparative Example A, reference compound]
LC50 (Heliothis zea): 500 µg/mL (≈ 1610 µM)
LC50 (Heliothis virescens): 31 µg/mL (≈ 99.8 µM)

Cc1ccc(Oc2ccc(NC(=O)NC(=O)c3c(F)cccc3F)cc2Cl)c(C)c1 [Comparative Example J, reference compound]
LC50 (Heliothis zea; [1]): > 100 µg/mL
LC50 (Heliothis virescens): > 100 µg/mL

O=C(NC(=O)c1c(F)cccc1F)Nc1cc(Cl)c(Oc2cccc3ccccc23)c(Cl)c1 [Comparative Example K, reference compound]
LC50 (Heliothis zea; [1]): 30 µg/mL (≈ 61.6 µM)
LC50 (Heliothis virescens): 500 µg/mL (≈ 1030 µM)

Cc1cc(NC(=O)NC(=O)c2ccccc2Cl)c(C)c(Cl)c1Oc1ccc(-c2ccccc2)cc1 [Example 10]
mortality at 500 ppm (southern armyworm): 0 to 30%
mortality at 500 ppm (Mexican bean beetle): 71 to 100%

Cc1cc(NC(=O)NC(=O)c2c(F)cccc2F)c(C)c(Cl)c1Oc1ccc(-c2ccccc2)cc1 [Example 11]
mortality at 500 ppm (southern armyworm): 71 to 100%
mortality at 500 ppm (Mexican bean beetle): 71 to 100%

Cc1cc(NC(=S)NC(=O)c2ccccc2Cl)c(C)c(Cl)c1Oc1ccc(-c2ccccc2)cc1 [Example 12]
mortality at 500 ppm (southern armyworm): 0 to 30%
mortality at 500 ppm (Mexican bean beetle): 71 to 100%

Cc1cc(NC(=S)NC(=O)c2ccccc2Cl)c(C)c(Cl)c1Oc1ccc(Br)cc1-c1ccccc1 [Example 13]
mortality at 500 ppm (southern armyworm): 0 to 30%
mortality at 500 ppm (Mexican bean beetle): 0 to 30%

Cc1cc(NC(=O)NC(=O)c2c(F)cccc2F)c(C)c(Cl)c1Oc1ccc(-c2ccccc2)cc1Cl [Example 14]
mortality at 500 ppm (southern armyworm): 71 to 100%
mortality at 500 ppm (Mexican bean beetle): 71 to 100%

Cc1cc(NC(=O)NC(=O)c2ccccc2F)c(C)c(Cl)c1Oc1ccc(-c2ccccc2)cc1Cl [Example 15]
mortality at 500 ppm (southern armyworm): 71 to 100%
mortality at 500 ppm (Mexican bean beetle): 71 to 100%

Cc1cc(NC(=O)NC(=O)c2c(F)cccc2Cl)c(C)c(Cl)c1Oc1ccc(-c2ccccc2)cc1Cl [Example 16]
mortality at 500 ppm (southern armyworm): 71 to 100%
mortality at 500 ppm (Mexican bean beetle): 71 to 100%

Cc1cc(NC(=O)NC(=O)c2ccccc2Cl)c(C)c(Cl)c1Oc1ccc(Cl)cc1-c1ccccc1 [Example 17]
mortality at 500 ppm (southern armyworm): 71 to 100%
mortality at 500 ppm (Mexican bean beetle): 71 to 100%

Cc1cc(NC(=O)NC(=O)c2ccccc2F)c(C)c(Cl)c1Oc1ccc(Cl)cc1-c1ccccc1 [Example 18]
mortality at 500 ppm (southern armyworm): 71 to 100%
mortality at 500 ppm (Mexican bean beetle): 71 to 100%

Cc1cc(NC(=O)NC(=O)c2c(F)cccc2Cl)c(C)c(Cl)c1Oc1ccc(Cl)cc1-c1ccccc1 [Example 19]
mortality at 500 ppm (southern armyworm): 71 to 100%
mortality at 500 ppm (Mexican bean beetle): 71 to 100%

Cc1cc(NC(=O)NC(=O)c2c(F)cccc2F)c(C)c(Cl)c1Oc1ccc(Cl)cc1-c1ccccc1 [Example 20]
mortality at 500 ppm (southern armyworm): 71 to 100%
mortality at 500 ppm (Mexican bean beetle): 71 to 100%

Cc1cc(Oc2ccccc2-c2ccccc2)c(Cl)cc1NC(=O)NC(=O)c1ccccc1Cl [Example 21]
mortality at 500 ppm (southern armyworm): 71 to 100%
mortality at 500 ppm (Mexican bean beetle): 71 to 100%

Cc1cc(Oc2ccccc2-c2ccccc2)c(Cl)cc1NC(=O)NC(=O)c1c(F)cccc1F [Example 22]
mortality at 500 ppm (southern armyworm): 71 to 100%
mortality at 500 ppm (Mexican bean beetle): 71 to 100%

Cc1cc(Oc2ccccc2-c2ccccc2)c(Cl)cc1NC(=S)NC(=O)c1ccccc1Cl [Example 23]
mortality at 500 ppm (southern armyworm): 71 to 100%
mortality at 500 ppm (Mexican bean beetle): 71 to 100%

Cc1cc(NC(=O)NC(=O)c2ccccc2Cl)c(C)c(Cl)c1Oc1ccc(Br)cc1-c1ccccc1 [Example 24]
mortality at 500 ppm (southern armyworm): 71 to 100%
mortality at 500 ppm (Mexican bean beetle): 0 to 30%

Cc1cc(NC(=O)NC(=O)c2c(F)cccc2F)c(C)c(Cl)c1Oc1ccc(Br)cc1-c1ccccc1 [Example 25]
mortality at 500 ppm (southern armyworm): 71 to 100%
mortality at 500 ppm (Mexican bean beetle): 71 to 100%

Cc1cc(NC(=O)NC(=O)c2c(F)cccc2Cl)c(C)c(Cl)c1Oc1ccc(Br)cc1-c1ccccc1 [Example 26]
mortality at 500 ppm (southern armyworm): 71 to 100%
mortality at 500 ppm (Mexican bean beetle): 71 to 100%

Cc1cc(Oc2ccccc2-c2ccccc2)c(Cl)cc1NC(=O)NC(=O)c1ccccc1C(F)(F)F [Example 27]
mortality at 500 ppm (southern armyworm): 0 to 30%
mortality at 500 ppm (Mexican bean beetle): 0 to 30%

O=C(NC(=O)c1c(F)cccc1F)Nc1cc(Cl)c(OCc2ccccc2-c2ccccc2)c(Cl)c1 [Example 28]
mortality at 500 ppm (southern armyworm): 71 to 100%
mortality at 500 ppm (Mexican bean beetle): 71 to 100%

O=C(NC(=S)Nc1cc(Cl)c(OCc2ccccc2-c2ccccc2)c(Cl)c1)c1ccccc1Cl [Example 29]
mortality at 500 ppm (southern armyworm): 71 to 100%
mortality at 500 ppm (Mexican bean beetle): 71 to 100%

O=C(NC(=O)c1c(F)cccc1F)Nc1cc(Cl)c(Oc2ccccc2-c2ccccc2)c(Cl)c1 [Example 31]
mortality at 500 ppm (southern armyworm): 71 to 100%
mortality at 500 ppm (Mexican bean beetle): 71 to 100%

O=C(NC(=O)c1ccccc1Cl)Nc1cc(Cl)c(Oc2ccccc2-c2ccccc2)c(Cl)c1 [Example 32]
mortality at 500 ppm (southern armyworm): 71 to 100%
mortality at 500 ppm (Mexican bean beetle): 71 to 100%

Cc1cc(NC(=O)NC(=O)c2c(F)cccc2F)c(C)c(Cl)c1Oc1ccccc1-c1ccccc1 [Example 36]
LC50 (Heliothis zea; [1]): 2.2 µg/mL (≈ 4.34 µM)
LC50 (Heliothis virescens): 9 µg/mL (≈ 17.8 µM)

Cc1cc(NC(=O)NC(=O)c2ccccc2Cl)c(C)c(Cl)c1Oc1ccccc1-c1ccccc1 [Example 37]
LC50 (Heliothis zea; [1]): 1.7 µg/mL (≈ 3.36 µM)
LC50 (Heliothis virescens): 4 µg/mL (≈ 7.91 µM)

Cc1cc(NC(=O)NC(=O)c2c(F)cccc2F)c(C)c(Cl)c1Oc1ccc(Cl)cc1-c1ccccc1 [Example 38]
LC50 (Heliothis zea; [1]): 1.6 µg/mL (≈ 2.96 µM)
LC50 (Heliothis virescens): 1.9 µg/mL (≈ 3.51 µM)

O=C(NC(=O)c1c(F)cccc1F)Nc1cc(Cl)c(OCc2ccccc2-c2ccccc2)c(Cl)c1 [Example 39]
LC50 (Heliothis zea; [1]): 5 µg/mL (≈ 9.48 µM)
LC50 (Heliothis virescens): 16 µg/mL (≈ 30.3 µM)

Cc1cc(NC(=O)NC(=O)c2c(F)cccc2Cl)c(C)c(Cl)c1Oc1ccccc1-c1ccccc1 [Example 40]
mortality at 500 ppm (two-spotted mite): 71 to 100%
